Experimental data published in patent publication US20160102073A1, “2-HYDROXYMETHYL-SUBSTITUTED OREXIN RECEPTOR ANTAGONISTS” (MERCK SHARP & DOHME CORP., priority 2013, published 2016).

Experiments:
[1] = biological target: T1, human orexin-2 receptor (hOX2R) (Homo sapiens, UniProt O43614); assay: FLIPR Ca2+ Flux Assay, CHO cells expressing hOX2R; type: cell-based; settings: agonist 70 pM Ala-6,12 orexin-A
T1 construct: expressed in transfected cells; host or cells: Chinese hamster ovary (CHO) cells, grown under G418 selection
T1 sequence (O43614 1-444): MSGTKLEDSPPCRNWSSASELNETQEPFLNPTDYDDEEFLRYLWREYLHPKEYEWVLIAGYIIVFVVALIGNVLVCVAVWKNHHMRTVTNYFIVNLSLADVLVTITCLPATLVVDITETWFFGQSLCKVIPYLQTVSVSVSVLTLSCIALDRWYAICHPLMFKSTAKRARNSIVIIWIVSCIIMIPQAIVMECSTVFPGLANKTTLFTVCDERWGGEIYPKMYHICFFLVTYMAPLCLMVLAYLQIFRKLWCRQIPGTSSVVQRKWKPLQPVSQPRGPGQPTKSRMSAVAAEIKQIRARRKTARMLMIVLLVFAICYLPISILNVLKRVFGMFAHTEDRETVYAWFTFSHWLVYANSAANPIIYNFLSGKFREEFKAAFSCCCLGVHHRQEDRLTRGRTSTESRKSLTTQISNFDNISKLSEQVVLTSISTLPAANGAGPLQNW

[2] = biological target: T2, human orexin-1 receptor (hOX1R) (Homo sapiens, UniProt O43613); assay: FLIPR Ca2+ Flux Assay, CHO cells expressing hOX1R; type: cell-based; settings: agonist 70 pM Ala-6,12 orexin-A
T2 construct: expressed in transfected cells; host or cells: Chinese hamster ovary (CHO) cells, grown under G418 selection
T2 sequence (O43613 1-425): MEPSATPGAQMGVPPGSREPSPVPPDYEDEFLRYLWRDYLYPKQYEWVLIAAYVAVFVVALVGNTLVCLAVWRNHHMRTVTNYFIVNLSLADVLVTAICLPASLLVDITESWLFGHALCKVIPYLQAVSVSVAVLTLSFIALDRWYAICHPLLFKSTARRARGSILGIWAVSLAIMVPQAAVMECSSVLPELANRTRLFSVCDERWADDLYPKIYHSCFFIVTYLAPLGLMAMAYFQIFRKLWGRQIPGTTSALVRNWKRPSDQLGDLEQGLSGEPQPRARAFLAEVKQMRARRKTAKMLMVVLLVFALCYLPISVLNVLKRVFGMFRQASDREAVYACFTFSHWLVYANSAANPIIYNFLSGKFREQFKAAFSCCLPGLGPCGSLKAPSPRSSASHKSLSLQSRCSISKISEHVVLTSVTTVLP

Compound | IC50 [1] [nM] | IC50 [2] [nM]
CC(C)c1ccnc(O[C@@H]2CC[C@@H](C)N(C(=O)c3ccccc3-n3nccn3)C2)c1CO [Example 43, [4-(1-methylethyl)-2-{[(3R,6R)-6-methyl-1-{[2-(2H-1,2,3-triazol-2-yl)phenyl]carbonyl}piperidin-3-yl]oxy}pyridin-3-yl]methanol] | 23 | 80
C[C@@H]1CC[C@@H](Oc2nccc(C(F)(F)F)c2CO)CN1C(=O)c1ccccc1-n1nccn1 [Example 44, [2-{[(3R,6R)-6-methyl-1-{[2-(2H-1,2,3-triazol-2-yl)phenyl]carbonyl}piperidin-3-yl]oxy}-4-(trifluoromethyl)pyridin-3-yl] methanol] | 18 | 81
COc1ccnc(O[C@@H]2CC[C@@H](C)N(C(=O)c3cccc(F)c3-n3nccn3)C2)c1CO [Example 47, (3-Fluoro-2-(2H-1,2,3-triazol-2-yl)phenyl)((2R,5R)-5-((3-(hydroxymethyl)-4-methoxypyridin-2-yl)oxy)-2-methylpiperidin-1-yl)methanone] | 81 | 1990
C[C@@H]1CC[C@@H](Oc2ncccc2C(C)(C)O)CN1C(=O)c1ccccc1-n1ncnn1 [Example 48, 2-(2-{[(3R,6R)-6-Methyl-1-{[2-(2H-tetrazol-2-yl)phenyl]carbonyl}piperidin-3-yl]oxy}pyridin-3-yl)propan-2-ol] | 21 | 156
COc1ccc(C(=O)N2C[C@H](Oc3ncccc3CO)CC[C@H]2C)c(-n2nccn2)n1 [Example 49, (2-{[(3R,6R)-1-{[6-Methoxy-2-(2H-1,2,3-triazol-2-yl)pyridin-3-yl]carbonyl}-6-methylpiperidin-3-yl]oxy}pyridin-3-yl)methanol] | 588 | 10000

More lines, now with the values ahead:

IC50 [1] [nM] | IC50 [2] [nM] | Compound
17 | 107 | C[C@@H]1CC[C@@H](Oc2nccc(C3CC3)c2CO)CN1C(=O)c1ccccc1-n1nccn1 [Example 42, (4-cyclopropyl-2-{[(3R,6R)-6-methyl-1-{[2-(2H-1,2,3-triazol-2-yl)phenyl]carbonyl}piperidin-3-yl]oxy}pyridin-3-yl) methanol]
29 | 95 | Cc1ccc(CO)c(O[C@@H]2CC[C@@H](C)N(C(=O)c3ccccc3-n3nccn3)C2)n1 [Example 45, (6-Methyl-2-{[(3R,6R)-6-methyl-1-{[2-(2H-1,2,3-triazol-2-yl)phenyl]carbonyl}piperidin-3-yl]oxy}pyridin-3-yl)methanol]
34 | 1170 | COc1ccnc(O[C@@H]2CC[C@@H](C)N(C(=O)c3ccccc3-n3nccn3)C2)c1CO [Example 46, (4-Methoxy-2-{[(3R,6R)-6-methyl-1-{[2-(2H-1,2,3-triazol-2-yl)phenyl]carbonyl}piperidin-3-yl]oxy}pyridin-3-yl)methanol]
289 | 1840 | C[C@@H]1CC[C@@H](Oc2ncccc2CO)CN1C(=O)c1ccccc1-n1ncnn1 [Example 50, (2-{[(3R,6R)-6-methyl-1-{[2-(2H-tetrazol-2-yl)phenyl]carbonyl}piperidin-3-yl]oxy}pyridin-3-yl)methanol]
